Experimental data as given in US20260191933A1, “PHARMACEUTICAL COMBINATIONS AND USES THEREOF” (The University of Melbourne, priority 2022, published 2026).

Assays:
ARC CSPG-ECM [1] = assay: Intranasal PZ6005 in obese mice: ARC CSPG-ECM expression (WFA immunostaining); type: in vivo, C57BL/6J mice; conditions: for ARC neurofibrosis / area and intensity of ARC CSPG-ECM: obese mice, intranasal 14 days, 1 or 5 mg/animal/day
Method: (§1) All image quantification was performed in Image J (NIH) software (NIH, MA). Raw images underwent background subtraction using a rolling ball algorithm to minimize background and any potential variance in tissue autofluorescence. To quantify area and intensity of the CSPG-ECM within each brain region (ARC, VMH or RSG cortex) images were thresholded and binarized to create a region of interest (ROI) mask of only the CSPG-ECM. For each brain area, CSPG-ECM ROI area (μm^2) and intensity (sum of all pixel intensities within the ROI) was calculated. This process was automated to minimise bias and to account for differences in brain nuclei size across multiple images. Brain nuclei were defined in accordance with the Paxinos and Franklin mouse brain atlas (http://labs.gaidi.ca/mouse-brain-atlas/). The area and intensity of CSPG-ECM within each region was normalised to the respective control.

[2] = system: 12-week HFHS fed obese mice; assay: Example 21: glycaemic control in treatment and off-treatment phase (GTT, ITT, fasting glucose); type: in vivo, C57BL/6J male mice; conditions: treatment phase
Excerpt: Under 2-5% (v/v) isoflurane in 1 L/min oxygen, 12-week-HFHS-diet-fed and aged-matched chow-fed C57BL/6J male mice were implanted stereotaxically with guide cannulas in the right lateral ventricle (measurement of the coordinates were described as Chapter 2; Anterior/Posterior: −1.00 mm, Medial/Lateral: +0.20 mm). Guide cannulas were made by polishing the shaft of hypodermic needles (19 Gauge, Livingstone, Australia) to 1.00 mm long. The tip of the guide cannula was positioned 1.00 mm above the target region (1.00 mm ventral to the surface of the mouse skull). The mice were allowed 2-3 days for recovery before further experimental manipulations.
Awake 12-week-HFHS-diet-fed and aged-matched chow-fed C57BL/6J male mice were restrained by scruffing and inverted in the head-down position. […]
Glucose tolerance test was conducted on 6-hrs fasted conscious mice by injecting D-glucose (2 mg/g of lean body mass) into the peritoneal cavity and measuring blood glucose levels by taking tail blood immediately at 0, 15, 30, 60, 90 and 120 mins after injection using an Accu-Check glucometer (Roche, Germany). The area under the glucose excursion curve was determined and represented as mmol/L×min. Fasted (24 hr fast) glucose level was measured using an Accu-Check glucometer. […]

ARC CSPG-ECM [3] = assay: I.C.V. PZ6005 and/or S.C. liraglutide, 28-day treatment: ARC CSPG-ECM (WFA); type: in vivo, C57BL/6j mice; conditions: PZ6005 100 μg/animal I.C.V. every other day first 14 days; liraglutide 200 μg/kg/day S.C. 28 days
Method: as §1

[4] = system: insulin receptor signalling within the ARC (pAKT); assay: Intranasal PZ6005: ARC pAKT +ve. cells after insulin; type: in vivo, C57BL/6J mice; conditions: both doses, 14-day intranasal administration
Method: Mice were injected intraperitoneally with vehicle (PBS) or insulin (3 mU/g, i.p., Actrapid, Nova Nordisk, Denmark) and mice were transcardially perfused (as described above) 15 min with 10% neutral buffered formalin. The brains were post-fixed for 16 h on a rocking platform at RT and then kept for two days in 30% sucrose in PBS to cryoprotect the tissue, before freezing on dry ice. 30 μm sections were cut in the coronal plane throughout the entire rostral-caudal extent of the hypothalamus. Sections were pre-treated for 10 mins in 0.3% glycine, washed in PBS-T and incubated for 10 min in 0.03% SDS. Sections were then blocked in 5% blocking buffer for 1 h at RT and incubated for 48 h with rabbit anti-p-AKT (Ser-473) (1:300; #4060, Cell Signaling Technology, Beverly, MA) in 1% blocking buffer. Sections were then incubated in 5% blocking buffer containing either goat anti-rabbit Alexa Fluor 647 (ab150083, Abcam, Cambridge, UK) or biotinylated goat anti-rabbit (BA-1000, Vector Laboratories, CA, no sodium azide in blocking buffer). […]

[5] = intranasal 1 mg/animal/day, 14 days

CC(=O)NC1C(OC(C)=O)OC(COC(C)=O)[C@@H](F)C1OC(C)=O (stereo partly shown) [PZ6005, per-O-acetylated-4-F-N-acetylglucosamine]
CSPG-ECM area lower than the controls (ARC CSPG-ECM [1]; [5]): 13.54±1.03%
CSPG-ECM intensity decreased by (ARC CSPG-ECM [1]; [5]): 15.94±7.17%
CSPG-ECM intensity reduced by (ARC CSPG-ECM [1]; intranasal 5 mg/animal/day (highest dose), 14 days): 30.16±1.52%
CSPG-ECM area lower than the controls (ARC CSPG-ECM [1]; intranasal 5 mg/animal/day, 14 days): 13.59±4.09%
ARC neurofibrosis / area and intensity of ARC CSPG-ECM (ARC CSPG-ECM [1]): robustly diminished
ARC neurofibrosis / area and intensity of ARC CSPG-ECM (ARC CSPG-ECM [1]; listed as fluorosamine): successfully attenuated
glucose tolerance / glycaemic regulation [2]: improved glucose tolerance
ARC CSPG-ECM intensity reduced by, compared with the mice receiving liraglutide (ARC CSPG-ECM [3]): 22.65±7.851%
CSPG-ECM area lower than liraglutide group (ARC CSPG-ECM [3]): 31.56±3.73%
ARC pAKT +ve. cells [4]: robust increase
